The test system of assay [1] is T1, archaeal class C-like β-lactamase.
T1 construct: gene class C-like beta-lactamase
The experiment in a line: nitrocefin hydrolysis, absorbance at […] nm, Michaelis-Menten fit. It counts as biochemical, Methanosarcina sp. The settings on record: room temperature; 4 µM enzyme; 0.05-1.5 mM nitrocefin.

For assay [2], the target named is T2, MetbaB (Methanosarcina β-lactamase class B) (Methanosarcina barkeri, UniProt A0A0E3SJT9).
T2 construct: gene MSBR3_0040
In words: inhibition of nitrocefin hydrolysis, absorbance at […] nm. The conditions noted are these: substrate nitrocefin; 1 µg/mL sulbactam; 30 min. It counts as biochemical.

SMILES strings stand for the structures.

T2 sequence (A0A0E3SJT9 1-213 limits assumed): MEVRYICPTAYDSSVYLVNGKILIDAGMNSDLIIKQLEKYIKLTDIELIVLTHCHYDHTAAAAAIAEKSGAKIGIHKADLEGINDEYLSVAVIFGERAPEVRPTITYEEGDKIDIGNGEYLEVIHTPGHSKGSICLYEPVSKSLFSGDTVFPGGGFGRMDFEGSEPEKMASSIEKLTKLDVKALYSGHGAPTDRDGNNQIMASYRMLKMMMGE

As a reminder, the Km is the substrate concentration at which the rate is half of its maximum. On to `O=C(Cc1cccs1)N[C@@H]1C(=O)N2C(C(=O)O)=C(/C=C/c3ccc([N+](=O)[O-])cc3[N+](=O)[O-])CS[C@H]12` [nitrocefin], for which the Km in assay [1] amounted to 584 µM.

Consider `CC1(C)[C@H](C(=O)O)N2C(=O)C[C@H]2S1(=O)=O` [sulbactam], for which, in assay [2], the “inhibition at 1 μg/mL” value is “in the presence of sulbactam, no degradation of the nitrocefin β-lactam could be detected”.

The values above are taken from article PMC7697635, “Dual RNase and β-lactamase Activity of a Single Enzyme Encoded in Archaea” (Life, 2020).
